The record followed here is ChEMBL document CHEMBL4219026, “A Cereblon Modulator (CC-220) with Improved Degradation of Ikaros and Aiolos” (J Med Chem, 2018).

Activity calls are given as the source filed them. The calls are words filed in the database; no cut-off is given here.

For experiment [1], the target named is Protein cereblon/Eukaryotic peptide chain release factor GTP-binding subunit ERF3A (Homo sapiens) (UniProt Q96SW2+P15170). Kind of experiment: Induction of cereblon-mediated GSPT1 degradation in human DF15 cells expressing ePL-tagged GSPT1 at 0.0005 to 10 uM after 4 hrs by luminometric analysis. In kind it is cell-based.
In experiment [2] the target is Cereblon/Casein kinase I alpha (Homo sapiens) (UniProt P48729+Q96SW2). Put plainly: Induction of cereblon-mediated CK1alpha (unknown origin) degradation in at 0.0005 to 10 uM after 4 hrs by cell-based chemiluminescent assay.
Cereblon/Casein kinase I alpha (Homo sapiens), sequence (P48729 2-337 limits assumed): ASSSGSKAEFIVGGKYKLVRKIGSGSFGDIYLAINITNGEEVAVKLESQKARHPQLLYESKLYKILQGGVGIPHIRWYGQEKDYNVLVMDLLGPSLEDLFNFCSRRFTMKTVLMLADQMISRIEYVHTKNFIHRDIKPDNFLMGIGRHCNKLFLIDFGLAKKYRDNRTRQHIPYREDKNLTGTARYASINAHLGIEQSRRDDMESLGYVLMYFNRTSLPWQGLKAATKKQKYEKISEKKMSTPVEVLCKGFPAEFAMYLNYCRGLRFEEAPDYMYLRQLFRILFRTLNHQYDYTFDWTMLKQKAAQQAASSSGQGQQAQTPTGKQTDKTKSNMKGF
Cereblon/Casein kinase I alpha (Homo sapiens), sequence (Q96SW2 whole entry partner): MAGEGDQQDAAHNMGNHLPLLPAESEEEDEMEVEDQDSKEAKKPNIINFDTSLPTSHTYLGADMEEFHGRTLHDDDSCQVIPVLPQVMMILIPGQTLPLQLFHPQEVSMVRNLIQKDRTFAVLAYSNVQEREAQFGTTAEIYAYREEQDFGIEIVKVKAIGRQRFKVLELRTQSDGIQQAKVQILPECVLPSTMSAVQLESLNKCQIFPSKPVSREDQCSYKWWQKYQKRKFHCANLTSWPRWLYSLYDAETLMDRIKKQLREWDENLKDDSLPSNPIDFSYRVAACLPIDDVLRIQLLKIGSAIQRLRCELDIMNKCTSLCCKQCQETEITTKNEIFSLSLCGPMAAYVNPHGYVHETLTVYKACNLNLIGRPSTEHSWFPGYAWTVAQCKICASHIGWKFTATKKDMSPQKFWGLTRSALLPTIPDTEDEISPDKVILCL

Protein cereblon/Eukaryotic peptide chain release factor GTP-binding subunit ERF3A (Homo sapiens), sequence (P15170 whole entry, looked up): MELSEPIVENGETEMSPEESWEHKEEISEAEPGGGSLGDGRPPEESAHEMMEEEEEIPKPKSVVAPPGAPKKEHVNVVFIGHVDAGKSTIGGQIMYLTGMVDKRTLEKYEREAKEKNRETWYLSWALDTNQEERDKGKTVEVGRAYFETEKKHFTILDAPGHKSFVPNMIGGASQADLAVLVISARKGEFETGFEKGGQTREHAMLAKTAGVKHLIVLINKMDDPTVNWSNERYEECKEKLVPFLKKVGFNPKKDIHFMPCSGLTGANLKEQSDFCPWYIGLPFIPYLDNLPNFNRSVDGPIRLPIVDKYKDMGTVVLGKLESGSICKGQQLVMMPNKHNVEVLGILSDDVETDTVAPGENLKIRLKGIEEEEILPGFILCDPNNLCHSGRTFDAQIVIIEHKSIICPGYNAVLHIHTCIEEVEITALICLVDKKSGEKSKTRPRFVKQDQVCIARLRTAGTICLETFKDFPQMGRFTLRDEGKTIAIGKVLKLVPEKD
Protein cereblon/Eukaryotic peptide chain release factor GTP-binding subunit ERF3A (Homo sapiens), sequence (Q96SW2 whole entry, looked up): as the sequence (Q96SW2 whole entry partner) above

As to `O=C1CC[C@H](N2Cc3c(OCc4ccc(CN5CCOCC5)cc4)cccc3C2=O)C(=O)N1`, the outcome in experiment [1] and in experiment [2] was inactive.
